Where two headings read alike, the source gives them in different places.
Tests used:
[1] = Pharmacokinetic studies for implants and NPs in Hu-PBL mice; format: in vivo; conditions: for concentration at 42 d / concentration at 56 d / AUC(0-t): NSG (NOD.Cg-Prkdcscid Il2rgtm1Wjl/SzJ), Hu-PBL, mouse; for concentration at 42 d / concentration at 56 d: plasma; for concentration at 42 d: intraperitoneal, day 42; for AUC(0-t): serum
Method: NOD.Cg-Prkdcscid Il2rgtm1 Wjl/SzJ (NSG) mice were purchased from the Jackson Laboratory (Bar Harbor, ME) and bred and maintained at Yale University (New Haven, CT) according to guidelines established by the Institutional Animal Committee. All experiments were performed according to protocols approved by the Institutional Review Board and the Institutional Animal Care and Use Committee of Yale University. NSG-Hu-PBL mice were engrafted. Briefly, 10×10^6 peripheral blood mononuclear cells (PBMC), purified by Ficoll density gradient centrifugation of healthy donor blood (obtained from the New York Blood Bank) were injected intraperitoneally in a 200 μl volume into 6- to 12-week-old NSG mice (Jackson Laboratory), using a 1 cm^3 syringe and 25-gauge needle. Mice were retro-orbitally bled to collect 70-100 μl of blood.
Two NSG mice were injected intraperitoneally (i.p.) with Compound I-NP (190 mg/kg) and EFdA (10 mg/kg) suspended in sterile saline solution. The blood samples were collected at predetermined time points from the ocular venous plexus by retro-orbital venipuncture and used for subsequent HPLC analysis.
Mice were anesthetized by intraperitoneal injection of ketamine (80 mg/kg) and xylazine (12 mg/kg) in PBS (10 ml/kg) based on individual mouse body weight. After anesthetizing, approximately 1-2 cm square of the dorsal skin was shaved using an electric hair clipper, the area was cleaned with ethanol and disinfected with betadine. Using a sterile disposable surgical blade, an incision of 4-5 mm was made through the skin. Gently, 2 cm×3 cm subcutaneous pockets were created with forceps and implants loaded with EFdA and Compound I were co-inserted at the same site. The opening was sutured using absorbable sutures followed by subcutaneous administration of 0.05 mg/kg buprenorphine. The animals were kept warm using the temperature-controlled heating pads until they regained consciousness. Toxicity was evaluated by clinical observations, eageside observations (twice daily), and body weight (at least weekly).
To determine dose-dependent serum agent concentrations, in vivo pharmacokinetics of Compound I and EFdA implants, and Compound I-NP and EFdA-NP were investigated in Hu-PBL mice. The blood samples were collected at predetermined time points from the ocular venous plexus by retro orbital venipuncture and serum was used for subsequent HPLC analysis.

[2] = target: T1, human mitochondrial DNA polymerase (Homo sapiens, UniProt P54098); conditions: previous studies; cited from earlier work
T1 sequence (P54098 1-1239): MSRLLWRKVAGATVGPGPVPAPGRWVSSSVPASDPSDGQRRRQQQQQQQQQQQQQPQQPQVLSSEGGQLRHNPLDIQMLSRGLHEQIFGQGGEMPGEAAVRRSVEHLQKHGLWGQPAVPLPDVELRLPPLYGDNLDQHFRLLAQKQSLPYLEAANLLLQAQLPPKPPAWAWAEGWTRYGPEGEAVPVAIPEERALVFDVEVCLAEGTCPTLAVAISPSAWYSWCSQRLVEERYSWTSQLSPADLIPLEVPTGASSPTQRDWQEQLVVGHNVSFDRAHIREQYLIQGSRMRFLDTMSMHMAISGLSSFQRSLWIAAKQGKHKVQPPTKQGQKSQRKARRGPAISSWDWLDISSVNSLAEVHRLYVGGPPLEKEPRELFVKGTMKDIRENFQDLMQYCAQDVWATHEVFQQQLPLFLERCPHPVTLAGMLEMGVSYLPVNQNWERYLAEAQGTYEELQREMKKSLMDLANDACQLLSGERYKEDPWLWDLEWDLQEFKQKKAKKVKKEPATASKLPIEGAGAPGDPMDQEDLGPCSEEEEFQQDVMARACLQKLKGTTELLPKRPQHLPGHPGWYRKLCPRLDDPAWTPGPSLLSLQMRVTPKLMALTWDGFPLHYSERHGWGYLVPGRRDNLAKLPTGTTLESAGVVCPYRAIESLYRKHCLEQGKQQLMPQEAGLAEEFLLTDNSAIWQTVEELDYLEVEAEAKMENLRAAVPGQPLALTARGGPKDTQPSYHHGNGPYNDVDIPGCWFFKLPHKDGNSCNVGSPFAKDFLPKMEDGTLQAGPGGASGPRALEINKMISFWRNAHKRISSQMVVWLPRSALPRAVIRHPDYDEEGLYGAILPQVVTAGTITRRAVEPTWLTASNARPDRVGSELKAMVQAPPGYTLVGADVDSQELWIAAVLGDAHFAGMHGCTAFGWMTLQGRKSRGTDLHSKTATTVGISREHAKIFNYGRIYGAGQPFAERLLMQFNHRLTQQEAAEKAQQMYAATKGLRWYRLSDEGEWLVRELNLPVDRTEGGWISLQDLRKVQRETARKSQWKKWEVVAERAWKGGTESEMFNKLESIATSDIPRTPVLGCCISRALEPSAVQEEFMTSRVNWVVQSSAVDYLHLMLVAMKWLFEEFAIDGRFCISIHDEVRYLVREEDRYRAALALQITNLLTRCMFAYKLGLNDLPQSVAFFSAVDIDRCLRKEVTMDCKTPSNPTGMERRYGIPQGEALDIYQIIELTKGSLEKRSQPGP

HIV-1 [3] = experiment: HIV cellular assays (HIV cell culture), antiviral potency
[4] = rodents; cited from earlier work
[5] = In vitro drug release from poly(EB-co-DO) implants with mathematical diffusion model; format: physicochemical; conditions: for Diffusion Coefficient: 28 % Loading, P4 (37k, 20% DO) implants
Method: Drug-loaded poly(EB-co-DO) implants (1 cm long, 2.4 mm diameter, 50 mg) were individually incubated in 1 mL of PBS solution (pH=7.4) containing 3% methyl-beta-cyclodextrin (M-β-CD) at 37° C. At selected time points, the buffer solution was completely replaced with fresh solution of the same composition. The collected buffer solutions, in which the implant had been continuously and completely bathed for a period of time, were flash frozen and lyophilized. High-performance liquid chromatography (HPLC) was then used to determine the representative drug loading of implants in each group.
The samples were then centrifuged at 3000 rpm for 5 min to draw out any salts and M-β-CD. The supernatant was passed through 0.22 um syringe filters before being analyzed by HPLC for drug content.
An Agilent column (883995-906, ZORBAX StableBond 300 C8, 4.6×150 mm, 5 μm) and Shimadzu HPLC system (LC-2030C) with a UV-Vis detector was used for drug quantitation. […] Initial solvent B concentration was set at 5% and allowed to increase to 100% by the 5th minute. Flow was maintained for 5 min at this level before dropping to 5% after 12 min, which was maintained until the end of the run at 13 minutes. For analysis of DTG drug release, Solvent A was 0.1% TFA in HPLC grade water, and solvent B was 100% methanol. Initial solvent B concentration was set at 55% and increased to 60% for the 6-7th minute before being brought back down to 55% for the 7-10th minute. All three drugs were detected using a UV detector at a wavelength of 240 nm. […] A volume of 45 μl was injected for each sample run.
Fick's second law of diffusion appropriately models drug transport across polymeric matrixes by proportionally relating the diffusion rate at time, t, to the concentration gradient of drug in the implant, ∂C/∂r. As shown in the equation below (1), a one-dimensional, radial release from our cylindrical implants was adopted, with a constant drug diffusion coefficient, D.
The solution for the above partial differential equation requires specification of a set of initial conditions and boundary conditions. For the initial condition (t=0), a homogenous and uniform concentration of drug throughout the implant was adopted, C=C0. A symmetry boundary condition is further applied at the center of the implant (r=0) as flux across the plane of symmetry is zero, ∂C/∂r=0. Lastly, a perfect-sink boundary condition is applied at the surface of implant (r=R), C=0. […] In vitro release, then, is determined from the mass of drug in the implant at each time point subtracted from initial mass of drug within the implant (Co*V). Lastly, the diffusion coefficient is determined by fitting the cumulative drug release profile to data from in vitro drug release experiments and minimizing root mean squared error (RMSE).

HIV-1 [6] = conditions: week 48, with FTC/TDF or ABC/3TC; cited from earlier work
[7] = cited from earlier work
[8] = cited from earlier work; remark: listed apart in the source
[9] = Biocompatibility study, subcutaneous implantation in mice; conditions: mouse, in vivo, sc
Method: To examine tissue responses and in vivo degradation of these implants, unloaded 20% DO implants (P4) were used and examined histological sections and polymer properties over a period of 8 months after subcutaneous implantation. Implants of ˜10 to 15 mg were implanted in the subdermal layer of 16 mice. […] implants were extracted every two months; half of the implants were used for histological examination while the other half were used to characterize the polymer using GPC and NMR (FIGS. 15A and 15B). […] This decrease in Mw (73%) during the first four months is slightly less than observed in vitro degradation, where there was an 84% decrease in Mw after four months of incubation in PBS buffer at 37° C. […] This trend can likely be attributed to the highly degradable PDO polymeric segments of the copolymer. In terms of structural integrity of the implants, the implants appeared intact at 8 months and were firm enough to be picked up by tweezers without damage to the implant.

Compound: C#C[C@]1(CO)O[C@@H](n2cnc3c(N)nc(F)nc32)C[C@@H]1O [EFdA, 4′-Ethynyl-2-fluoro-2′-deoxyadenosine]
- increase in serum concentration ([1]; NPs, day 14-post infection): 21%
- decline in serum concentration after day 21 ([1]; NPs, over the next three weeks): two-fold decline
- clearance ([1]; NPs, single i.p. dose, co-administered): 1.2 mL/h/kg
- concentration at 42 d ([1]; NPs, read-out: plasma level maintained at end of experiment): ≥ 4000 ng/mL
- concentration at 42 d ([1]; NPs, read-out: plasma level maintained at end of experiment (molar)): ≥ 13 µM
- concentration at 56 d ([1]; subcutaneous, implants, day 56, read-out: sustained plasma concentration at end of experiment): 7500 ng/mL
- concentration at 56 d ([1]; subcutaneous, implants, day 56, read-out: sustained plasma concentration at end of experiment (molar)): 25 µM
- AUC(0-t) ([1]; ip, NPs, single i.p. dose, co-administered): 6980 µg·h/mL
- AUC(0-t) ([1]; subcutaneous, co-implanted poly(PDL-co-DO) implants, 56 d): 9130 µg·h/mL
- serum level fold higher than the cellular EC50 ([1]; implants, day 14): 11,000 fold
- fold decrease in serum concentration compared to day 28 ([1]; implants, day 35 post-implantation): 5 fold
- plasma concentration fold above the EC90 ([1]; implants, day 56): ~1600 fold
- substrate for human mitochondrial DNA polymerase [2]: poor substrate
- EC50 (HIV-1 [3]; Human immunodeficiency virus 1, read-out: effective concentrations (EC50)): 1.9 nM
- IC90 / EC90 in HIV cell culture (HIV-1 [3]; calculated from EC50 with Hill slope of 1): 17.1 nM
- time of sustained levels of agent from implants [4]: up to 6 months

Compound: C[C@@H]1CCO[C@H]2Cn3cc(C(=O)NCc4ccc(F)cc4F)c(=O)c(O)c3C(=O)N12 [DTG, dolutegravir]
- Diffusion Coefficient [5]: 1.7 × 10^−9 cm^2/sec
- burst release rates compared to DEX ([5]; 28% loading, P4 implants): three-fold reduction in burst release rates
- cumulative in vitro release compared to DEX from comparable implants ([5]; 28% loading, P4 implants): slower cumulative release

Compound: Cn1c(Cn2ccc(C(F)(F)F)c(Oc3cc(Cl)cc(C#N)c3)c2=O)n[nH]c1=O [doravirine]
- patients with plasma HIV-1 RNA of less than 50 copies/mL (HIV-1 [6]): 84%

Compound: C[C@@H]1C[C@H]2[C@@H]3CCC4=CC(=O)C=C[C@]4(C)[C@@]3(F)[C@@H](O)C[C@]2(C)[C@@]1(O)C(=O)CO [DEX, dexamethasone]
- log P [7]: 1.6-1.9
- Diffusion Coefficient [5]: 3.7 × 10^−9 cm^2/sec
- diffusion coefficient in porous EVAc implants ([8]; 35% DEX loading): 2.0×10^−10 cm^2/sec
- diffusion coefficient in water ([8]; radiolabeled DEX in saline, 37° C.): 5.2×10^−6 cm^2/sec

Compound: poly(ethylene brassylate-co-dioxanone) [poly(EB-co-DO) implants]
- tolerability after subcutaneous implantation [9]: well tolerated

From patent US20250195415A1, “BIODEGRADABLE CONTROLLED RELEASE ANTIVIRAL AGENT IMPLANTS” (Yale University, priority 2022, published 2025)
